How the values were obtained:
Assay type in all cases: functional
Amaranthus retroflexus [1] = test: Post-emergence herbicidal activity against Amaranthus retroflexus assessed as growth inhibition at 1500 ai g/ha after 20 days by green house test
[2] = system: Brassica rapa subsp. oleifera; test: Post-emergence herbicidal activity against Brassica rapa subsp. oleifera Si Yue Man assessed as growth inhibition at 1500 ai g/ha after 20 days by green house test
Echinochloa crus-galli [3] = test: Post-emergence herbicidal activity against Echinochloa crus-galli (barnyard grass) assessed as growth inhibition at 1500 ai g/ha after 20 days by green house test
Amaranthus retroflexus [4] = test: Pre-emergence herbicidal activity against Amaranthus retroflexus assessed as growth inhibition at 1500 ai g/ha after 20 days by green house test
Echinochloa crus-galli [5] = test: Pre-emergence herbicidal activity against Echinochloa crus-galli (barnyard grass) assessed as growth inhibition at 1500 ai g/ha after 20 days by green house test
Medicago sativa [6] = test: Pre-emergence herbicidal activity against Medicago sativa (alfalfa) assessed as growth inhibition at 1500 ai g/ha after 20 days by green house test
Digitaria sanguinalis [7] = test: Pre-emergence herbicidal activity against Digitaria sanguinalis (hairy crabgrass) assessed as growth inhibition at 1500 ai g/ha after 20 days by green house test
Medicago sativa [8] = test: Post-emergence herbicidal activity against Medicago sativa (alfalfa) assessed as growth inhibition at 1500 ai g/ha after 20 days by green house test
[9] = system: Brassica rapa subsp. oleifera; test: Pre-emergence herbicidal activity against Brassica rapa subsp. oleifera Si Yue Man assessed as growth inhibition at 1500 ai g/ha after 20 days by green house test
Digitaria sanguinalis [10] = test: Post-emergence herbicidal activity against Digitaria sanguinalis (hairy crabgrass) assessed as growth inhibition at 1500 ai g/ha after 20 days by green house test

SMILES	growth inhibition (GI) (Amaranthus retroflexus [1])	growth inhibition (GI) [2]	growth inhibition (GI) (Echinochloa crus-galli [3])	growth inhibition (GI) (Amaranthus retroflexus [4])	growth inhibition (GI) (Echinochloa crus-galli [5])	growth inhibition (GI) (Medicago sativa [6])	growth inhibition (GI) (Digitaria sanguinalis [7])	growth inhibition (GI) (Medicago sativa [8])	growth inhibition (GI) [9]	growth inhibition (GI) (Digitaria sanguinalis [10])
COP(=O)(OC)C(OC(=O)COc1cc(C)ccc1Cl)c1cccc([N+](=O)[O-])c1 (stereo not given)	<=50%	<=50%	<=50%	<=50%	<=50%	<=50%	<=50%	<=50%	<=50%	<=50%
COP(=O)(OC)C(OC(=O)COc1ccc(F)c(Cl)c1)C(Cl)(Cl)Cl (stereo not given)	90%	75%	50%	50%	50%	50%	75%	50%	<=50%	<=50%
COP(=O)(OC)C(C)OC(=O)COc1ccc(Cl)c(C)c1 (stereo not given)	50%	50%	<=50%	75%	75%	75%	75%	50%	90%	<=50%
COP(=O)(OC)C(C)OC(=O)COc1cc(C)ccc1Cl (stereo not given)	<=50%	<=50%	<=50%	<=50%	<=50%	<=50%	<=50%	<=50%	<=50%	50%
COP(=O)(OC)C(OC(=O)COc1cccc(C)c1C)c1ccccc1 (stereo not given)	<=50%	75%	50%	50%	75%	75%	<=50%	50%	90%	<=50%
COP(=O)(OC)C(C)OC(=O)COc1cc(F)cc(F)c1 (stereo not given)	<=50%	<=50%	<=50%	<=50%	<=50%	<=50%	<=50%	<=50%	<=50%	<=50%
COP(=O)(OC)C(OC(=O)COc1ccc(Cl)cc1)c1ccccc1O (stereo not given)	75%	75%	<=50%	<=50%	<=50%	90%	50%	75%	<=50%	<=50%
COP(=O)(OC)C(OC(=O)COc1cccc(Cl)c1Cl)c1cccc([N+](=O)[O-])c1 (stereo not given)	<=50%	<=50%	<=50%	<=50%	<=50%	<=50%	<=50%	<=50%	<=50%	<=50%
COP(=O)(OC)C(C)OC(=O)COc1ccc(F)c(Cl)c1 (stereo not given)	75%	75%	<=50%	<=50%	50%	75%	50%	75%	<=50%	<=50%
COP(=O)(OC)C(OC(=O)COc1cccc(F)c1)c1cccc([N+](=O)[O-])c1 (stereo not given)	<=50%	<=50%	<=50%	<=50%	<=50%	<=50%	<=50%	<=50%	<=50%	<=50%
COP(=O)(OC)C(OC(=O)COc1ccc([N+](=O)[O-])cc1)c1cccc([N+](=O)[O-])c1 (stereo not given)	<=50%	<=50%	<=50%	<=50%	<=50%	<=50%	<=50%	<=50%	<=50%	<=50%
COP(=O)(OC)C(OC(=O)COc1c(Cl)cccc1Cl)c1cccc([N+](=O)[O-])c1 (stereo not given)	<=50%	<=50%	<=50%	<=50%	<=50%	<=50%	<=50%	<=50%	<=50%	<=50%
COP(=O)(COC(=O)COc1ccccc1)OC [(DIMETHOXYPHOSPHORYL)METHYL 2-PHENOXYACETATE]	<=50%	<=50%	<=50%	<=50%	<=50%	<=50%	<=50%	<=50%	<=50%	<=50%
COP(=O)(OC)C(C)OC(=O)COc1ccc(Br)cc1 (stereo not given)	50%	75%	<=50%	<=50%	<=50%	<=50%	<=50%	50%	<=50%	<=50%
COP(=O)(OC)C(OC(=O)COc1cccc(C(F)(F)F)c1)c1cccc([N+](=O)[O-])c1 (stereo not given)	<=50%	50%	50%	50%	<=50%	50%	<=50%	<=50%	50%	<=50%
COP(=O)(OC)C(OC(=O)COc1ccccc1[N+](=O)[O-])c1cccc([N+](=O)[O-])c1 (stereo not given)	<=50%	<=50%	<=50%	<=50%	<=50%	<=50%	<=50%	<=50%	<=50%	<=50%
COP(=O)(OC)C(OC(=O)COc1ccc(F)cc1F)c1cccc([N+](=O)[O-])c1 (stereo not given)	75%	75%	<=50%	<=50%	<=50%	50%	50%	50%	<=50%	50%
COP(=O)(OC)C(OC(=O)COc1ccccc1)c1ccccc1 (stereo not given)	<=50%	<=50%	<=50%	<=50%	<=50%	<=50%	<=50%	<=50%	<=50%	<=50%
COP(=O)(OC)C(C)OC(=O)COc1ccc(C)cc1 (stereo not given)	50%	50%	50%	75%	50%	75%	<=50%	50%	75%	<=50%
COP(=O)(OC)C(OC(=O)COc1ccc(Cl)cc1Cl)C(Cl)(Cl)Cl (stereo not given)	90%	90%	50%	90%	90%	90%	90%	50%	90%	50%
COP(=O)(OC)C(C)OC(=O)COc1ccc(Br)cc1Br (stereo not given)	90%	90%	<=50%	<=50%	<=50%	75%	<=50%	90%	<=50%	<=50%

— ChEMBL document CHEMBL3045592, “Studies of O,O-dimethyl α-(2,4-dichlorophenoxyacetoxy)ethylphosphonate (HW02) as a new herbicide. 1. Synthesis and herbicidal activity of HW02 and analogues as novel inhibitors of pyruvate dehydrogenase complex” (J Agric Food Chem, 2011)
